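Where inhibition never reached the appropriate level, the endpoint shown equals the highest concentration tested. Otherwise, values were interpolated linearly from a five-concentration, 48-hour dose response in 96-well plates. TGI: total growth inhibition.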 Where a SMILES comes first, the peptide text is derived from it. The star is where a group is joined. Cbz = O=C(OCc1ccccc1)*
Columns and labels:
Assay in all cases: DTP human tumour cell line panel, 48 h
CCRF-CEM leukemia = tested on: CCRF-CEM leukemia
COLO 205 colon = tested on: COLO 205 colon
HCC-2998 colon = tested on: HCC-2998 colon
HOP-62 NSCLC = tested on: HOP-62 NSCLC
HS 578T breast = tested on: HS 578T breast
MALME-3M melanoma = tested on: MALME-3M melanoma
MCF7 breast = tested on: MCF7 breast
MDA-N = tested on: MDA-N
NCI-H23 lung = tested on: NCI-H23 lung
NCI-H522 lung = tested on: NCI-H522 lung
NCI/ADR-RES ovarian = tested on: NCI/ADR-RES ovarian
OVCAR-5 ovarian = tested on: OVCAR-5 ovarian
OVCAR-8 ovarian = tested on: OVCAR-8 ovarian
RPMI-8226 leukemia = tested on: RPMI-8226 leukemia
SK-MEL-5 melanoma = tested on: SK-MEL-5 melanoma
SNB-75 CNS = tested on: SNB-75 CNS
T-47D breast = tested on: T-47D breast
TK-10 renal = tested on: TK-10 renal
A498 renal = tested on: A498 renal
SF-539 CNS = tested on: SF-539 CNS

SMILES	TGI (CCRF-CEM leukemia)	TGI (COLO 205 colon)	TGI (HCC-2998 colon)	TGI (HOP-62 NSCLC)	TGI (HS 578T breast)	TGI (MALME-3M melanoma)	TGI (MCF7 breast)	TGI (MDA-N)	TGI (NCI-H23 lung)	TGI (NCI-H522 lung)	TGI (NCI/ADR-RES ovarian)	TGI (OVCAR-5 ovarian)	TGI (OVCAR-8 ovarian)	TGI (RPMI-8226 leukemia)	TGI (SK-MEL-5 melanoma)	TGI (SNB-75 CNS)	TGI (T-47D breast)	TGI (TK-10 renal)	TGI (A498 renal)	TGI (SF-539 CNS)
COC(=O)C(CC(C)C)NC(=O)C(CCCN=C(N)N)NC(=O)OCc1ccccc1 (stereo not drawn) (Cbz-Arg-Leu-OMe; configuration not given here)	> 100 µM	> 100 µM	> 100 µM	> 100 µM	> 100 µM	> 100 µM	> 100 µM	> 100 µM	> 100 µM	> 100 µM	> 100 µM	> 100 µM	> 100 µM	> 100 µM	> 100 µM	> 100 µM	> 100 µM	> 100 µM	–	–
CN(/N=C/c1ccc(Cl)c(Cl)c1)C1=NCCCCN1	83.5 µM	37.2 µM	63.9 µM	35.4 µM	> 100 µM	32.5 µM	54.3 µM	42.2 µM	> 100 µM	33.7 µM	> 100 µM	> 100 µM	> 100 µM	64 µM	27.8 µM	> 100 µM	> 100 µM	> 100 µM	49.2 µM	61.1 µM
CNC(=O)N1CN(c2ccccc2)C2(CCN(Cc3ccccc3)CC2)C1=O	> 100 µM	> 100 µM	39.8 µM	> 100 µM	–	> 100 µM	> 100 µM	> 100 µM	> 100 µM	> 100 µM	51.3 µM	64.1 µM	> 100 µM	> 100 µM	> 100 µM	> 100 µM	11 µM	> 100 µM	–	> 100 µM
O=C(O)/C=C/c1ccc(OS(=O)(=O)O)cc1	–	> 100 µM	> 100 µM	> 100 µM	> 100 µM	> 100 µM	> 100 µM	> 100 µM	> 100 µM	> 100 µM	> 100 µM	> 100 µM	> 100 µM	> 100 µM	> 100 µM	> 100 µM	> 100 µM	> 100 µM	> 100 µM	> 100 µM
CC(C)(C)OC(=O)NCCC1CNc2ccccc21 (configuration not stated)	–	> 100 µM	> 100 µM	> 100 µM	> 100 µM	> 100 µM	> 100 µM	> 100 µM	> 100 µM	> 100 µM	> 100 µM	> 100 µM	> 100 µM	> 100 µM	> 100 µM	> 100 µM	> 100 µM	> 100 µM	> 100 µM	–
CC[C@]1(Cc2ccc(OC)c(OC)c2)C2CC(C(=O)OC)ON2O[C@H](OCc2ccccc2)[C@@H]1OC(C)=O (some centres not stated)	> 100 µM	> 100 µM	> 100 µM	> 100 µM	–	> 100 µM	> 100 µM	> 100 µM	> 100 µM	> 100 µM	> 100 µM	> 100 µM	> 100 µM	> 100 µM	> 100 µM	> 100 µM	> 100 µM	> 100 µM	> 100 µM	–
COC(=O)[C@@H]1C[C@]2(Br)c3ccccc3N(S(=O)(=O)c3ccccc3)[C@@H]2N1C(=O)OC	> 100 µM	–	> 100 µM	> 100 µM	> 100 µM	> 100 µM	> 100 µM	> 100 µM	> 100 µM	> 100 µM	> 100 µM	> 100 µM	> 100 µM	> 100 µM	> 100 µM	> 100 µM	> 100 µM	> 100 µM	> 100 µM	> 100 µM
O=S1(=O)c2ccccc2N2C(c3ccccc3)=NOC2(c2ccccc2)CC1c1ccc(Br)cc1 (configuration not stated)	> 100 µM	> 100 µM	> 100 µM	> 100 µM	> 100 µM	> 100 µM	> 100 µM	> 100 µM	> 100 µM	> 100 µM	> 100 µM	> 100 µM	> 100 µM	–	> 100 µM	> 100 µM	> 100 µM	> 100 µM	> 100 µM	> 100 µM
CN(C)/C=C/c1c2c(nc3ccccc13)C(=O)c1cccnc1C2=O	9.28 µM	5.55 µM	2.6 µM	0.435 µM	4.65 µM	2.26 µM	–	1.92 µM	0.42 µM	1.13 µM	1.9 µM	3.95 µM	3.2 µM	6.27 µM	0.346 µM	4.66 µM	21.6 µM	4.03 µM	2.31 µM	1.21 µM
C=CCc1cccc2cc(C(=O)Nc3ccc(C)cc3)c(=N)oc12	> 100 µM	> 100 µM	> 100 µM	> 100 µM	> 100 µM	> 100 µM	> 100 µM	> 100 µM	> 100 µM	> 100 µM	> 100 µM	> 100 µM	> 100 µM	> 100 µM	> 100 µM	> 100 µM	> 100 µM	–	> 100 µM	–
Cc1cc(C#N)c(Nc2ccc(F)cc2[N+](=O)[O-])s1	> 100 µM	> 100 µM	> 100 µM	> 100 µM	–	> 100 µM	–	> 100 µM	> 100 µM	> 100 µM	> 100 µM	> 100 µM	> 100 µM	> 100 µM	–	> 100 µM	> 100 µM	–	> 100 µM	> 100 µM
CCOC(=O)[C@@H](NC(=O)OC(C)(C)C)[C@@H](O)C(=O)OCC	> 100 µM	> 100 µM	> 100 µM	> 100 µM	> 100 µM	> 100 µM	> 100 µM	> 100 µM	> 100 µM	–	> 100 µM	> 100 µM	> 100 µM	> 100 µM	> 100 µM	> 100 µM	> 100 µM	> 100 µM	> 100 µM	–
Cc1ccc(N=C2OP(=O)(Nc3ccc(C)cc3)Oc3ccccc32)cc1 (configuration not stated)	> 100 µM	> 100 µM	> 100 µM	> 100 µM	> 100 µM	> 100 µM	> 100 µM	> 100 µM	> 100 µM	–	> 100 µM	> 100 µM	> 100 µM	–	> 100 µM	> 100 µM	> 100 µM	> 100 µM	> 100 µM	> 100 µM
Cc1c(C(=O)Nc2ccccc2)nnn1-c1ccnc2cc(C(F)(F)F)ccc12	81.5 µM	> 100 µM	> 100 µM	–	> 100 µM	> 100 µM	> 100 µM	> 100 µM	> 100 µM	> 100 µM	> 100 µM	> 100 µM	> 100 µM	–	52.6 µM	> 100 µM	> 100 µM	> 100 µM	> 100 µM	> 100 µM
CCOC(=O)/C(=C\c1cn(C(C)=O)c2ccccc12)P(C)(=O)OCC (configuration not stated)	> 100 µM	> 100 µM	94.3 µM	> 100 µM	–	> 100 µM	> 100 µM	> 100 µM	–	67.2 µM	> 100 µM	> 100 µM	> 100 µM	> 100 µM	> 100 µM	36.5 µM	> 100 µM	–	> 100 µM	45.1 µM
O=C(Nc1ccccc1)c1cc(S(=O)(=O)N2CCNC2=O)c(S)cc1Cl	> 100 µM	> 100 µM	> 100 µM	> 100 µM	> 100 µM	–	> 100 µM	> 100 µM	> 100 µM	> 100 µM	> 100 µM	> 100 µM	> 100 µM	> 100 µM	> 100 µM	> 100 µM	> 100 µM	> 100 µM	> 100 µM	> 100 µM
COc1ccc(N/N=C/C2=CC(C)(C)C(C#N)(C#N)C(O)=C2C#N)cc1	> 100 µM	49.8 µM	–	> 100 µM	> 100 µM	> 100 µM	> 100 µM	> 100 µM	> 100 µM	> 100 µM	> 100 µM	> 100 µM	> 100 µM	> 100 µM	> 100 µM	> 100 µM	> 100 µM	> 100 µM	81 µM	> 100 µM
O=C(c1ccccc1)N(CCCCNC(=O)C(F)(F)F)CCCNC(=O)C(F)(F)F	> 100 µM	> 100 µM	> 100 µM	–	> 100 µM	> 100 µM	> 100 µM	> 100 µM	> 100 µM	> 100 µM	> 100 µM	> 100 µM	> 100 µM	> 100 µM	> 100 µM	> 100 µM	> 100 µM	> 100 µM	> 100 µM	> 100 µM
OCC(O)COCn1cc(Cn2ncc3c(NCc4ccccc4)ncnc32)nn1 (configuration not stated)	> 100 µM	> 100 µM	> 100 µM	> 100 µM	47.9 µM	–	> 100 µM	> 100 µM	> 100 µM	33.4 µM	> 100 µM	> 100 µM	> 100 µM	> 100 µM	> 100 µM	–	> 100 µM	> 100 µM	> 100 µM	> 100 µM
CCOC(=O)[C@@]1(C(C)=O)CC(C)=C(C)C[S@]1=O	–	> 100 µM	> 100 µM	> 100 µM	> 100 µM	> 100 µM	> 100 µM	> 100 µM	> 100 µM	> 100 µM	> 100 µM	> 100 µM	> 100 µM	> 100 µM	–	> 100 µM	> 100 µM	> 100 µM	> 100 µM	–
O=C1/C(=C/c2ccccc2)CCc2ccc([N+](=O)[O-])cc21	> 100 µM	> 100 µM	> 100 µM	> 100 µM	> 100 µM	> 100 µM	> 100 µM	> 100 µM	> 100 µM	–	> 100 µM	> 100 µM	> 100 µM	7.13 µM	> 91.2 µM	> 74.6 µM	> 100 µM	> 100 µM	> 100 µM	> 100 µM
Cc1cn(C2CC(N=[N+]=[N-])C(CO)O2)c(=O)n(CCCCBr)c1=O (configuration not stated)	> 100 µM	> 100 µM	> 100 µM	> 100 µM	> 100 µM	> 100 µM	> 100 µM	> 100 µM	> 100 µM	> 100 µM	> 100 µM	> 100 µM	> 100 µM	> 100 µM	–	> 100 µM	> 100 µM	> 100 µM	> 100 µM	> 100 µM
[N-]=[N+]=Nc1c(-c2ccccc2)c(=O)n(-c2ccccc2)c2ccccc12	> 100 µM	> 100 µM	> 100 µM	> 100 µM	> 100 µM	> 100 µM	> 100 µM	> 100 µM	> 100 µM	97.1 µM	> 100 µM	–	> 100 µM	> 100 µM	–	> 100 µM	82.2 µM	> 100 µM	> 100 µM	> 100 µM
N#CC1(C#N)[C@@H]2CCC=C(Sc3ccccc3)[C@@H]21	63.1 µM	32 µM	32 µM	–	> 100 µM	32 µM	23.4 µM	34.1 µM	–	24.5 µM	40.4 µM	32 µM	31.2 µM	> 100 µM	29.4 µM	47.2 µM	52.4 µM	28.9 µM	> 100 µM	34.7 µM
COC(=O)/C=C\C(C#N)(C#N)N=Cc1cccs1	3.58 µM	–	33.8 µM	32.6 µM	78.3 µM	6.61 µM	4.06 µM	49.3 µM	27.3 µM	2.24 µM	45 µM	22.1 µM	14.4 µM	7.36 µM	11.2 µM	29.3 µM	7.51 µM	3.43 µM	34.3 µM	–

Source: PubChem BioAssay (NCI)
